Source: patent US12605439B2 (priority 2017, dated 2026)

Experiments:
SIIN specific T cell = type: cell-based
LK^b cells = type: cell-based

## QLE SIINFEKL TEW (QLESIINFEKLTEW; OVA peptide used in the Examples) [Ext SIIN, extended model ovalbumin peptide with three flanking residues at both termini]
SIIN specific T cell
  activation of T cells compared to free peptide: equivalent
LK^b cells
  presentation of CD8 epitope compared to free peptide loading: lower
